“Also recorded” adds a separate entry of the source.
Columns and labels:
CT26 colon carcinoma = CT26 colon carcinoma xenograft in immunodeficient BALB/c nude mice; format: in vivo, mouse
Method: Eight-week-old male BALB/c nude mice, weighing 18–22 g, were supplied by Model Animal Research Centre of Nanjing University (Nanjing, China). 1 × 10^7/ml and 1 × 10^6 CT26 cells (in 0.1 ml PBS) were injected subcutaneously into the right flanks of mice. After CT26 xenograft BALB/c nude mouse model was established, all mice were randomly divided into three groups (n = 8). 5d (12.5 mg/kg) were administered (i.g) every day and 5-FU (25 mg/kg) awere administered (i.p) every three days. The following experimental procedures were similar to the described above.
For immunohistochemistry staining, the sections were deparaffinized, rehydrated, and washed in 1% PBS-Tween 20, and then treated with 2% hydrogen peroxide, blocked with 3% goat serum (Life Technology, 16210–064) and incubated for 2 h at room temperature with specific primary antibodies. Then the slides were incubated with streptavidin-HRP (Shanghai Gene Company, GK500705) for 40 min, then stained with DAB (Shanghai Gene Company, GK500705) substrate and counter-stained with haematoxylin. Images were acquired by microscopy (Olympus IX51).
Then, in order to clarify whether the in vivo antitumour efficacy of compound 5d was related to the mouse immune system, we repeated the above experiment in immunodeficient nude mice. Briefly, BALB/c nude mice bearing established CT26 colon carcinoma xenograft were treated with compound 5d and 5-FU for 10 days.
Figure 8. […] 1 × 10^6 CT26 cells were transplanted subcutaneously into the armpit of immunodeficient BALB/c nude mice. Three days after transplantation, mice were randomly allocated to vehicle control or treatment groups (n = 8). Drugs were administered on days 1–9. (A) Tumour volume and mouse body weight (B) were recorded. After sacrifice, solid tumours were separated and weighed (C, D). Data represent mean ± SEM, n = 8, *p < 0.05, **p < 0.01 vs vehicle.
To verify the above conclusions, we further performed H&E and IHC staining on the nude mouse CT26 tumour tissues. […] These findings further supported the above conclusions.

[1] = test system: naïve CD4+ T cells co-cultured with B16F1 melanoma cells; assay: T cell proliferation in B16F1-T cell co-culture (MTT); format: cell-based, mouse; conditions: 18 μM
Method: The main bioassays performed in the study, including HeLa cell-based IDO1/kynurenine assay, Western blot analysis, T cell proliferation and Treg cell differentiation experiments, were carried out as described previously.
T lymphocytes are exceedingly sensitive to low tryptophan levels. Overactivation of the kynurenine pathway by high IDO1 expression leads to local tryptophan depletion, which can suppress T cell proliferation by activating the GCN2 kinase pathway and eventually result in T cell anergy. Here, to determine whether secondary sulphonamides could rescue IDO1-mediated blockade of T cell proliferation, we used a co-culture of IDO1-expressing B16F1 melanoma cells with naïve CD4^+ T cells to mimic the tumour microenvironment. Given that melanoma is a highly immunogenic tumour and IDO1 constitutively expresses in melanoma cells, B16F1 murine melanoma cell lines that express IDO1 were then used to co-culture with T cells. Naïve CD4^+ T cells were isolated from spleens of C57BL/6 mice.
Figure 4. Compounds 5d and 8 g could promote the proliferation of T cells. Based on the B16F1-T cell co-culture system, use MTT assay to test T cells proliferation. The Navoximod and compounds were added to the system at the concentration of 1.5 and 18 μM. Data represent mean ± SEM (n = 3).

[2] = nude mouse CT26 tumour tissue, 12.5 mg/kg i.g

Q: What does the source list for `C=CC(=O)Nc1ccc(S(=O)(=O)NCc2cccc(Cl)c2)cc1` [5d, N-(4-(N-(3-Chlorobenzyl)sulfamoyl)phenyl)acrylamide]?
A: tumour growth (CT26 colon carcinoma; BALB/c nude mice, 12.5 mg/kg i.g every day, vs vehicle): did not block tumour growth; expression of PCNA (CT26 colon carcinoma; [2]): had no influence on the expression of PCNA; tumour cell morphology (H&E staining) (CT26 colon carcinoma; [2]): remained intact morphology; T cell proliferation [1]: significant augmentation on T cell activity; also recorded: better enhancement of T cell proliferation than navoximod

From publication PMC7336998, “Discovery of secondary sulphonamides as IDO1 inhibitors with potent antitumour effects in vivo” (Journal of Enzyme Inhibition and Medicinal Chemistry, 2020)
